{
  "source": "patent US20240325517A1",
  "about": "“COMPOSITIONS AND METHODS TARGETING FILAMENTOUS BACTERIOPHAGE” (THE UNIVERSITY OF MONTANA, priority 2020, published 2024)",
  "key": {"CoaBa1 hapten": {"system": "CoaBa1 hapten", "test": "Adjuvant system for CoaB-CRM conjugate, total serum IgG ELISA (Example 9)", "type": "in vivo, C57/BL/6 mice", "details": "for Mean Log10 total serum IgG titer: booster day 14, serum 14 days post-secondary", "protocol": "The lead CoaB vaccines consist of a peptide hapten conjugated to CRM197. To determine whether TLR7 and TLR4 adjuvants would provide a beneficial effect on antibody titres or provide a dose sparing effect, female C57/BL/6 mice aged 6-8 weeks old (10 per group) were vaccinated intramuscularly with 1 μg of CoaBa-CRM conjugate in combination with indicated dose of (Adjuvant B), a TLR 7/8 adjuvant, and or (Adjuvant A) a TLR4 adjuvant. A booster with respective dose of adjuvant combination with […] of CoaBa-CRM conjugate was administered 14 days post primary. ELISA data is from serum collected 14 days post-secondary vaccination boost."}, "CoaBa [1]": {"system": "CoaBa", "test": "Anti-CoaBa IgG subtypes induced with TLR4 agonist, ELISA (Example 10)", "type": "in vivo, C57/BL/6 mice", "parameters": "Mean total IgG / Mean IgG1 / Mean IgG2b: unit not given here", "details": "for Mean IgG1 / Mean IgG2b / Mean total IgG: booster day 14, serum 14 days post-secondary", "protocol": "Female C57/BL/6 mice aged 6-8 weeks old (5 per group) were vaccinated intramuscularly with […] of CoaBa-CRM conjugate in combination with indicated dose of TLR4 agonist Adjuvant A. A booster with respective dose of adjuvant combination with 1 μg of CoaBa-CRM conjugate was administered 14 days post primary. ELISA data are from serum collected 14 days postsecondary vaccination boost. (A) Total IgG, (B) IgG1, (C) IgG2a isotypes are shown."}, "CoaBa [2]": {"system": "CoaBa", "test": "Anti-CoaBa IgG subtypes induced with TLR4 agonist, ELISA (Example 10)", "type": "in vivo, C57/BL/6 mice", "parameters": "unit not given here", "details": "booster day 14, serum 14 days post-secondary"}, "CoaBa1": {"system": "CoaBa1", "test": "Total IgG ELISA, plate coated with CoaBa1 (Example 11)", "type": "in vivo, C57/BL/6 mice", "details": "for Total IgG ELISA plate coated with CoaBa1: 1 μg conjugate IM, with 1 μg Adj A where named, booster day 14, serum 14 days post-secondary; for cross-reactivity to CoaBa1 (in words): vaccination, Tables 16 and 17 cited in text", "protocol": "(§1) Female C57/BL/6 mice aged 6-8 weeks old (8 per group) were vaccinated intramuscularly with 1 μg of CoaBa-CRM or […] of CoaBb-CRM conjugate in combination with […] dose of TLR 4 agonist Adjuvant A. A booster with 1 μg dose of Adjuvant A adjuvant combination with 1 μg of respective conjugate was administered 14 days post primary. ELISA data is from serum collected 14 days post-secondary vaccination boost. CoaBa1 within-clade cross reactive immunity against coaBa2 was determined. (Tables 15 and 16). Clade A CoaBa cross-reactive immunity against Clade B CoaBb epitope was determined. (Table 17)."}, "CoaBa2": {"system": "CoaBa2", "test": "Total IgG ELISA, plate coated with CoaBa2 (Example 11)", "type": "in vivo, C57/BL/6 mice", "details": "for Total IgG ELISA plate coated with CoaBa2: 1 μg conjugate IM, with 1 μg Adj A where named, booster day 14, serum 14 days post-secondary", "protocol": "as §1"}, "CoaBb1": {"system": "CoaBb1", "test": "Total IgG ELISA, plate coated with CoaBb1 (Example 11)", "type": "in vivo, C57/BL/6 mice", "details": "1 μg conjugate IM, with 1 μg Adj A where named; booster day 14; serum 14 days post-secondary", "protocol": "as §1"}, "[3]": {"details": "cited from earlier work"}, "sheep red blood cells": {"system": "sheep red blood cells", "details": "cited from earlier work"}, "[4]": {"biological_target": "CoaBa (Pseudomonas aeruginosa filamentous (Pf) bacteriophage)", "test": "anti-CoaBa serum ELISA; 14 days post boost; C57BL/6"}, "[5]": {"details": "0.01 μg Adj A with 1 μg CoaBa-CRM conjugate IM"}, "[6]": {"details": "0.1 μg Adj A with 1 μg CoaBa-CRM conjugate IM"}, "[7]": {"details": "1 μg Adj A with 1 μg CoaBa-CRM conjugate IM"}, "[8]": {"details": "0.0001 μg Adj A with 1 μg CoaBa-CRM conjugate IM"}, "[9]": {"details": "0.001 μg Adj A with 1 μg CoaBa-CRM conjugate IM"}, "[10]": {"details": "10 μg Adj A with 1 μg CoaBa-CRM conjugate IM"}},
  "note": "Read-outs that look alike come from different tables or passages of the source. Where no end group is shown, it is not given here.",
  "data": [
    {"molecule": "CCCCCCCCCCC[C@H](CC(=O)NCCO[C@@H]1OC(CO)[C@@H](OS(=O)(=O)O)[C@H](NC(=O)C[C@@H](CCCCCCCCCCC)OC(=O)CCCCCCCCC)C1NC(=O)C[C@@H](CCCCCCCCCCC)OC(=O)CCCCCCCCC)OC(=O)CCCCCCCCC", "note": "(stereo partly shown) [Adjuvant A]", "values": [
      {"measurement": "Mean Log10 total serum IgG titer", "setting": "CoaBa1 hapten; [5]", "result": 3.74, "unit": "Log10"},
      {"measurement": "Mean Log10 total serum IgG titer", "setting": "CoaBa1 hapten; [6]", "result": 4.55, "unit": "Log10"},
      {"measurement": "Mean Log10 total serum IgG titer", "setting": "CoaBa1 hapten; [7]", "result": 5.12, "unit": "Log10"},
      {"measurement": "antibody titers against the CoaBa1 hapten (in words)", "setting": "CoaBa1 hapten; vaccine dose experiments with 1 μg CoaBa-CRM conjugate", "result": "produced the highest antibody titers against the CoaBa1 hapten"},
      {"measurement": "Mean IgG1", "setting": "CoaBa [1]; [8]", "result": 0.95},
      {"measurement": "Mean IgG2b", "setting": "CoaBa [1]; [8]", "result": 1.02},
      {"measurement": "Mean total IgG", "setting": "CoaBa [1]; [8]", "result": 1.27},
      {"measurement": "Mean IgG1", "setting": "CoaBa [1]; [9]", "result": 1.86},
      {"measurement": "Mean total IgG", "setting": "CoaBa [1]; [9]", "result": 2.38},
      {"measurement": "Mean IgG1", "setting": "CoaBa [1]; [5]", "result": 1.99},
      {"measurement": "Mean total IgG", "setting": "CoaBa [1]; [5]", "result": 3.15},
      {"measurement": "Mean IgG1", "setting": "CoaBa [1]; [6]", "result": 2.45},
      {"measurement": "Mean total IgG", "setting": "CoaBa [1]; [6]", "result": 4.00},
      {"measurement": "Mean IgG1", "setting": "CoaBa [1]; [7]", "result": 3.60},
      {"measurement": "Mean IgG2b", "setting": "CoaBa [1]; [7]", "result": 4.31},
      {"measurement": "Mean total IgG", "setting": "CoaBa [1]; [7]", "result": 4.19},
      {"measurement": "Mean IgG1", "setting": "CoaBa [1]; [10]", "result": 2.88},
      {"measurement": "Mean total IgG", "setting": "CoaBa [1]; [10]", "result": 4.25},
      {"measurement": "IgG subtype analysis (in words)", "setting": "CoaBa [1]; adjuvanting CoaBa with Adjuvant A", "result": "elicited both IgG1 and IgG2b subclasses"},
      {"measurement": "Mean IgG2b", "setting": "CoaBa [2]; [9]", "result": 1.22},
      {"measurement": "Mean IgG2b", "setting": "CoaBa [2]; [5]", "result": 2.45},
      {"measurement": "Mean IgG2b", "setting": "CoaBa [2]; [6]", "result": 3.90},
      {"measurement": "Mean IgG2b", "setting": "CoaBa [2]; [10]", "result": 3.31}
    ]},
    {"molecule": "CoaBa1: CoaBa1 hapten-CRM197 conjugate vaccine (GVIDTSAVESAITDGQGD; not fully specified)", "values": [
      {"measurement": "Total IgG ELISA plate coated with CoaBa1", "setting": "CoaBa1", "result": 0.50},
      {"measurement": "Total IgG ELISA plate coated with CoaBa2", "setting": "CoaBa2", "result": 0.5},
      {"measurement": "cross-reactivity to CoaBa2-CRM197 (in words)", "setting": "CoaBa2; vaccination, Table 15 cited in text", "result": "produced cross-reactivity to CoaBa2-CRM197"},
      {"measurement": "Total IgG ELISA plate coated with CoaBb1", "setting": "CoaBb1", "result": 0.5}
    ]},
    {"molecule": "CoaBa2: CoaBa2 hapten-CRM197 conjugate vaccine (GSVIDTSAVEAAITEGKGD; not fully specified)", "values": [
      {"measurement": "Total IgG ELISA plate coated with CoaBa1", "setting": "CoaBa1", "result": 0.50},
      {"measurement": "cross-reactivity to CoaBa1 (in words)", "setting": "CoaBa1", "result": "produced cross-reactivity to CoaBa1-CRM197"},
      {"measurement": "Total IgG ELISA plate coated with CoaBa2", "setting": "CoaBa2", "result": 0.5}
    ]},
    {"molecule": "CoaBb1: CoaBb-CRM conjugate vaccine, subclade b1 (ADSLIDETTKEVLTQAGTDG; also: conjugated to CRM carrier, site not given here)", "values": [
      {"measurement": "cross-reactivity to CoaBa1 (in words)", "setting": "CoaBa1", "result": "did not produce cross-reactive immunity to clade A subtypes CoaBa1"},
      {"measurement": "Total IgG ELISA plate coated with CoaBb1", "setting": "CoaBb1", "result": 0.5}
    ]},
    {"molecule": "QS-17", "values": [
      {"measurement": "critical micellar concentration", "setting": "[3]; in phosphate buffered saline", "result": "0.03 % (w/v)"},
      {"measurement": "critical micellar concentration", "setting": "[3]; in water", "result": "0.06 % (w/v)"},
      {"measurement": "concentrations causing hemolysis of sheep red blood cells", "setting": "sheep red blood cells", "result": "≥ 25000", "unit": "ng/mL"}
    ]},
    {"molecule": "QS-18", "values": [
      {"measurement": "critical micellar concentration", "setting": "[3]; in phosphate buffered saline", "result": "0.02 % (w/v)"},
      {"measurement": "critical micellar concentration", "setting": "[3]; in water", "result": "0.04 % (w/v)"}
    ]},
    {"molecule": "QS-21", "values": [
      {"measurement": "critical micellar concentration", "setting": "[3]; in phosphate buffered saline", "result": "~0.02 % (w/v)"},
      {"measurement": "critical micellar concentration", "setting": "[3]; in water", "result": "about 0.03 % (w/v)"},
      {"measurement": "concentrations causing hemolysis of sheep red blood cells", "setting": "sheep red blood cells", "result": "≥ 25000", "unit": "ng/mL"}
    ]},
    {"molecule": "serum of naïve (unvaccinated) mice", "values": [
      {"measurement": "Mean IgG1", "setting": "[4]", "result": 0.5},
      {"measurement": "Mean IgG2b", "setting": "[4]", "result": 0.5},
      {"measurement": "Mean total IgG", "setting": "[4]", "result": 0.5}
    ]}
  ]
}
